Source: ChEMBL document CHEMBL2346616, “Design and synthesis of novel pyrimido[4,5-b]azepine derivatives as HER2/EGFR dual inhibitors” (Bioorg Med Chem, 2013)
Active and inactive are the calls of the source. The rule behind the calls is not given here.

How the values were obtained:
[1] = biological target: Epidermal growth factor receptor (Homo sapiens, UniProt P00533); test: Inhibition of human N-terminal DYKDDDD-tagged EGFR cytoplasmic domain (669 to 1210) expressed in baculovirus expression system incubated for 5 mins prior to [gamma-32P]ATP addition measured after 10 mins by scintillation counting analysis
Chain of Epidermal growth factor receptor (P00533 whole entry, the tested form may be a part): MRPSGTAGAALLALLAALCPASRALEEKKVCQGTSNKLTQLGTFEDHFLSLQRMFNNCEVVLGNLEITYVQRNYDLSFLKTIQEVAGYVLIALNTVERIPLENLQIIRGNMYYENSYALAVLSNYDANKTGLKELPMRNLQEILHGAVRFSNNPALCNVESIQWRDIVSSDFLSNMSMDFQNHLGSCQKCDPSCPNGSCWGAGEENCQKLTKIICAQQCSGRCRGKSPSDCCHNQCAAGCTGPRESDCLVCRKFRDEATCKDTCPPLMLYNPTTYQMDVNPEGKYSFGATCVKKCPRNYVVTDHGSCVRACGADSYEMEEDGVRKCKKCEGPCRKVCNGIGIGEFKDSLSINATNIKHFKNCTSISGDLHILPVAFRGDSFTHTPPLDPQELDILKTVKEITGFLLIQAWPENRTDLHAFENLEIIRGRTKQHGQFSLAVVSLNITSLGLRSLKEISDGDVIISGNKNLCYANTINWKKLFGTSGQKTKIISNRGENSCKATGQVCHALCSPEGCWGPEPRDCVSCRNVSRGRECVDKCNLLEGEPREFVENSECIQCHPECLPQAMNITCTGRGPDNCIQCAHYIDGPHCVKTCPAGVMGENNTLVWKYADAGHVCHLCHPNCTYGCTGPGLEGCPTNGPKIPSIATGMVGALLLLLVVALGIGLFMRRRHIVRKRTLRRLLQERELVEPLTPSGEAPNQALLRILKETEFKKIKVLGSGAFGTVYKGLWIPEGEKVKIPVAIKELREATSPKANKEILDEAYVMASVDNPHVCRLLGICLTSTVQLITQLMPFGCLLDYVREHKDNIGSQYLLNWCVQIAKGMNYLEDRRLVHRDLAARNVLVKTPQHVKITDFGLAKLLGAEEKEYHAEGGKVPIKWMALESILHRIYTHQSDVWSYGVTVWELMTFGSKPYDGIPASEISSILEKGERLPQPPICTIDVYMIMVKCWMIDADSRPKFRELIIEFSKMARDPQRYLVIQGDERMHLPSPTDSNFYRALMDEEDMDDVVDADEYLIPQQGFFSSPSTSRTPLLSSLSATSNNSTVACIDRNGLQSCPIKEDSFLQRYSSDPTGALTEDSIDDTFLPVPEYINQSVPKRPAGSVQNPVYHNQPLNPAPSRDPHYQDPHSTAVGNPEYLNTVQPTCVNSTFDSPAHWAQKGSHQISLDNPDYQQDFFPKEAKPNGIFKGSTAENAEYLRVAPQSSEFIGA

[2] = system: BT-474; test: Growth inhibition of human BT474 cells overexpressing HER2 after 5 days; assay type: functional; conditions: BT-474, 120 h
[3] = biological target: T1, Receptor tyrosine-protein kinase erbB-2 (Homo sapiens, UniProt P04626); test: Inhibition of human N-terminal DYKDDDD-tagged HER2 cytoplasmic domain (676 to 1255) expressed in baculovirus expression system incubated for 5 mins prior to [gamma-32P]ATP addition measured after 10 mins by scintillation counting analysis
T1 sequence (P04626 whole entry, the tested form may be a part): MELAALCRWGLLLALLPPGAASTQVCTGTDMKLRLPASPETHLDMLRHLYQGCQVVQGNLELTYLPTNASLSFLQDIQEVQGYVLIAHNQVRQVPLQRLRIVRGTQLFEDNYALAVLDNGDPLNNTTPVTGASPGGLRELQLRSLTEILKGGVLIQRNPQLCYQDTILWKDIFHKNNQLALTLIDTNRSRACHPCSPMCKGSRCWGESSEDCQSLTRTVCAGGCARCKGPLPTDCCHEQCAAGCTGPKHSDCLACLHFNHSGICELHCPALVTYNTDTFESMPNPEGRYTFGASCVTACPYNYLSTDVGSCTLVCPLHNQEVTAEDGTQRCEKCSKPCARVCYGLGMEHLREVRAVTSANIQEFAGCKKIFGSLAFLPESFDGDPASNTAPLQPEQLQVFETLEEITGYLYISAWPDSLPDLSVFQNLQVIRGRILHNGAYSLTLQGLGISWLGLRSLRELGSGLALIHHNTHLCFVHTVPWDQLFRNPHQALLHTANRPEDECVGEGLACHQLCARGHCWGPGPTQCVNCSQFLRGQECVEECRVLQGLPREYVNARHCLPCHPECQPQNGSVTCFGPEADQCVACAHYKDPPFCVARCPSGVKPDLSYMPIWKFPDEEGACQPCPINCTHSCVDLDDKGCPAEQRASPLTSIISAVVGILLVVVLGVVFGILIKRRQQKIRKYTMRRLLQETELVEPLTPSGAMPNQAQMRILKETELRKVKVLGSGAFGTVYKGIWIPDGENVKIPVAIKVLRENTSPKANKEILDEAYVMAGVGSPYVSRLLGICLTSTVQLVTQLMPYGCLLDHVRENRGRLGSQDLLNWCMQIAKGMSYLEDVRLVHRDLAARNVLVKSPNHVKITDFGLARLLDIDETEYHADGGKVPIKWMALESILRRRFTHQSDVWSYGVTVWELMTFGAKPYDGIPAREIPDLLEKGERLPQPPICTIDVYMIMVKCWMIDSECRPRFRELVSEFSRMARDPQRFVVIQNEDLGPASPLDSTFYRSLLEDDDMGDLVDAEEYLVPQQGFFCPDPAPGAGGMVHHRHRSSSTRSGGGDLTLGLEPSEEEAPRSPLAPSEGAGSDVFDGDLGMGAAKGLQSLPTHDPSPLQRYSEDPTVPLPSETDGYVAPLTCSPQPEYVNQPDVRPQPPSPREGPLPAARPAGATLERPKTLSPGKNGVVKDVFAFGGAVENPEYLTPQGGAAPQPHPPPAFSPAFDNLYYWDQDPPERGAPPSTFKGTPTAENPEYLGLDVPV

[4] = biological target: Mitogen-activated protein kinase kinase kinase 5 (Homo sapiens, UniProt Q99683); test: Inhibition of N-terminal FLAG-tagged ASK1 (unknown origin) expressed in baculovirus expression system incubated for 5 mins prior to [gamma-33P]ATP addition measured after 60 mins by scintillation counting analysis
[5] = biological target: Mitogen-activated protein kinase kinase kinase 1 (Homo sapiens, UniProt Q13233); test: Inhibition of C-terminal FLAG-tagged MEKK (unknown origin) expressed in baculovirus expression system incubated for 5 mins prior to [gamma-33P]ATP addition measured after 60 mins by scintillation counting analysis
[6] = biological target: Platelet-derived growth factor receptor alpha (Homo sapiens, UniProt P16234); test: Inhibition of PDGFRalpha (unknown origin) incubated for 5 mins prior to ATP addition measured after 30 mins by Alphascreen assay
[7] = biological target: Dual specificity mitogen-activated protein kinase kinase 1 (Homo sapiens, UniProt Q02750); test: Inhibition of N-terminal GST-fused MEK1 (unknown origin) incubated for 5 mins prior to [gamma-33P]ATP addition measured after 20 mins by scintillation counting analysis
[8] = biological target: Mast/stem cell growth factor receptor Kit (Homo sapiens, UniProt P10721); test: Inhibition of c-kit (unknown origin) incubated for 5 mins prior to ATP addition measured after 20 mins by Alphascreen assay
[9] = biological target: Fibroblast growth factor receptor 3 (Homo sapiens, UniProt P22607); test: Inhibition of FGFR3 (unknown origin) incubated for 5 mins prior to ATP addition measured after 10 mins by Alphascreen assay
[10] = biological target: T2, Tyrosine-protein kinase Lyn (Homo sapiens, UniProt P07948); test: Inhibition of LYNA (unknown origin) incubated for 5 mins prior to ATP addition measured after 10 mins by Alphascreen assay
T2 sequence (P07948 whole entry): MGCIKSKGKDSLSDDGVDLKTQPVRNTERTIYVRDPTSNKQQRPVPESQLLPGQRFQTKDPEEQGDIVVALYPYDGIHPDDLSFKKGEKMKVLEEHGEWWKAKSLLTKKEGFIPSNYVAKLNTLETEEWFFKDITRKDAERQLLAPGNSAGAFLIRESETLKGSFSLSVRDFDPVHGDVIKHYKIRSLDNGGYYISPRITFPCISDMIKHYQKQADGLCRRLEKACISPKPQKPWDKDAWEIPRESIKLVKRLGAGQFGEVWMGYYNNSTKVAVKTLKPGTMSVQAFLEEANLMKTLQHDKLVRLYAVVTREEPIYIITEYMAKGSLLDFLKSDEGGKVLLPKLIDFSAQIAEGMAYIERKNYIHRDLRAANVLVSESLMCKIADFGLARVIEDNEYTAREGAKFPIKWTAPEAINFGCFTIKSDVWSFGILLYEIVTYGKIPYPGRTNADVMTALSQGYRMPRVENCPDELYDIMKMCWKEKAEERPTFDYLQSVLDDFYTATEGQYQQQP

[11] = biological target: Angiopoietin-1 receptor (Homo sapiens, UniProt Q02763); test: Inhibition of TIE2 (unknown origin) incubated for 5 mins prior to ATP addition measured after 10 mins by Alphascreen assay
[12] = biological target: Insulin-like growth factor 1 receptor (Homo sapiens, UniProt P08069); test: Inhibition of IGF1R (unknown origin) incubated for 5 mins prior to ATP addition measured after 20 mins by Alphascreen assay
[13] = biological target: Aurora kinase B (Homo sapiens, UniProt Q96GD4); test: Inhibition of N-terminal His6x-tagged aurora-B (unknown origin) expressed in baculovirus expression system incubated for 5 mins prior to [gamma-33P]ATP addition measured after 60 mins by scintillation counting analysis
[14] = biological target: Inhibitor of nuclear factor kappa-B kinase subunit beta (Homo sapiens, UniProt O14920); test: Inhibition of C-terminal FLAG-tagged IKKbeta (unknown origin) expressed in baculovirus expression system incubated for 5 mins prior to [gamma-33P]ATP addition measured after 5 mins by scintillation counting analysis
[15] = biological target: Tyrosine-protein kinase ZAP-70 (Homo sapiens, UniProt P43403); test: Inhibition of ZAP70 (unknown origin) incubated for 5 mins prior to ATP addition measured after 10 mins by Alphascreen assay
[16] = biological target: Tyrosine-protein kinase CSK (Homo sapiens, UniProt P41240); test: Inhibition of CSK (unknown origin) incubated for 5 mins prior to ATP addition measured after 10 mins by Alphascreen assay
[17] = biological target: Hepatocyte growth factor receptor (Homo sapiens, UniProt P08581); test: Inhibition of c-MET (unknown origin) incubated for 5 mins prior to ATP addition measured after 10 mins by Alphascreen assay
[18] = biological target: Dual specificity mitogen-activated protein kinase kinase 5 (Homo sapiens, UniProt Q13163); test: Inhibition of N-terminal FLAG-tagged MEK5 (unknown origin) expressed in baculovirus expression system incubated for 5 mins prior to [gamma-33P]ATP addition measured after 30 mins by scintillation counting analysis
Chain of Dual specificity mitogen-activated protein kinase kinase 5 (Q13163 whole entry): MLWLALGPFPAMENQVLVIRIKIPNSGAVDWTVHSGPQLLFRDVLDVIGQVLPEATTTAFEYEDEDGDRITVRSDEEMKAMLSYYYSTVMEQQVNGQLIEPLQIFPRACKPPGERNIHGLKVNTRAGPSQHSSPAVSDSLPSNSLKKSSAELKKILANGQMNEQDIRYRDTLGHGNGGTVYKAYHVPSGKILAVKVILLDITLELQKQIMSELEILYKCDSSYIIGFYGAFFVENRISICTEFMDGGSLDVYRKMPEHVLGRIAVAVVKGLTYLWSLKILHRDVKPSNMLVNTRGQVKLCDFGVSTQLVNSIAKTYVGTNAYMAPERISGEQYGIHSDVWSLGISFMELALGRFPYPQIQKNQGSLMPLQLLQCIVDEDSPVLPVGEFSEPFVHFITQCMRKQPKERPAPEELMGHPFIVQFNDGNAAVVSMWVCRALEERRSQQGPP

[19] = biological target: Mitogen-activated protein kinase 8 (Homo sapiens, UniProt P45983); test: Inhibition of N-terminal FLAG-tagged JNK1 (unknown origin) expressed in baculovirus expression system incubated for 5 mins prior to [gamma-33P]ATP addition measured after 60 mins by scintillation counting analysis
[20] = biological target: T1, Receptor tyrosine-protein kinase erbB-2; test: Pseudo-irreversible inhibition of human N-terminal DYKDDDD-tagged HER2 cytoplasmic domain (676 to 1255) expressed in baculovirus expression system at 10 times IC50 preincubated for 15 mins followed by 100 fold dilution measured after 16 hrs by Alphascreen assay
[21] = biological target: Cytoplasmic tyrosine-protein kinase BMX (Homo sapiens, UniProt P51813); test: Inhibition of N-terminal FLAG-tagged full length BMX (unknown origin) expressed in baculovirus expression system incubated for 5 mins prior to ATP addition measured after 10 mins by Alphascreen assay
[22] = biological target: Dual specificity protein kinase TTK (Homo sapiens, UniProt P33981); test: Inhibition of N-terminal FLAG-tagged TTK (unknown origin) expressed in baculovirus expression system incubated for 5 mins prior to [gamma-33P]ATP addition measured after 10 mins by scintillation counting analysis
[23] = biological target: T2, Tyrosine-protein kinase Lyn; test: Inhibition of LYNB (unknown origin) incubated for 5 mins prior to ATP addition measured after 10 mins by Alphascreen assay
[24] = biological target: Receptor tyrosine-protein kinase erbB-4 (Homo sapiens, UniProt Q15303); test: Inhibition of HER4 cytoplasmic domain (unknown origin) expressed in baculovirus expression system incubated for 5 mins prior to [gamma-32P]ATP addition measured after 10 mins by scintillation counting analysis
[25] = biological target: Vascular endothelial growth factor receptor 1 (Homo sapiens, UniProt P17948); test: Inhibition of VEGFR1 (unknown origin) incubated for 5 mins prior to ATP addition measured after 5 mins by Alphascreen assay
[26] = biological target: Protein kinase C theta type (Homo sapiens, UniProt Q04759); test: Inhibition of N-terminal FLAG-tagged PKCtheta (unknown origin) expressed in baculovirus expression system incubated for 5 mins prior to [gamma-33P]ATP addition measured after 60 mins by scintillation counting analysis
[27] = biological target: Tyrosine-protein kinase Lck (Homo sapiens, UniProt P06239); test: Inhibition of LCK (unknown origin) incubated for 5 mins prior to ATP addition measured after 30 mins by Alphascreen assay
[28] = biological target: Fibroblast growth factor receptor 1 (Homo sapiens, UniProt P11362); test: Inhibition of FGFR1 (unknown origin) incubated for 5 mins prior to ATP addition measured after 10 mins by Alphascreen assay
[29] = biological target: Mitogen-activated protein kinase 14 (Homo sapiens, UniProt Q16539); test: Inhibition of N-terminal FLAG-tagged p38alpha (unknown origin) expressed in baculovirus expression system incubated for 5 mins prior to [gamma-33P]ATP addition measured after 60 mins by scintillation counting analysis
[30] = biological target: Vascular endothelial growth factor receptor 2 (Homo sapiens, UniProt P35968); test: Inhibition of N-terminal FLAG-tagged VEGFR2 cytoplasmic domain (unknown origin) incubated for 5 mins prior to ATP addition measured after 10 mins by Alphascreen assay
[31] = biological target: Mitogen-activated protein kinase 3 (Homo sapiens, UniProt P27361); test: Inhibition of N-terminal FLAG-tagged ERK1 (unknown origin) expressed in baculovirus expression system incubated for 5 mins prior to [gamma-33P]ATP addition measured after 60 mins by scintillation counting analysis
[32] = biological target: Platelet-derived growth factor receptor beta (Homo sapiens, UniProt P09619); test: Inhibition of PDGFRbeta (unknown origin) incubated for 5 mins prior to ATP addition measured after 60 mins by Alphascreen assay
Chain of Platelet-derived growth factor receptor beta (P09619 whole entry): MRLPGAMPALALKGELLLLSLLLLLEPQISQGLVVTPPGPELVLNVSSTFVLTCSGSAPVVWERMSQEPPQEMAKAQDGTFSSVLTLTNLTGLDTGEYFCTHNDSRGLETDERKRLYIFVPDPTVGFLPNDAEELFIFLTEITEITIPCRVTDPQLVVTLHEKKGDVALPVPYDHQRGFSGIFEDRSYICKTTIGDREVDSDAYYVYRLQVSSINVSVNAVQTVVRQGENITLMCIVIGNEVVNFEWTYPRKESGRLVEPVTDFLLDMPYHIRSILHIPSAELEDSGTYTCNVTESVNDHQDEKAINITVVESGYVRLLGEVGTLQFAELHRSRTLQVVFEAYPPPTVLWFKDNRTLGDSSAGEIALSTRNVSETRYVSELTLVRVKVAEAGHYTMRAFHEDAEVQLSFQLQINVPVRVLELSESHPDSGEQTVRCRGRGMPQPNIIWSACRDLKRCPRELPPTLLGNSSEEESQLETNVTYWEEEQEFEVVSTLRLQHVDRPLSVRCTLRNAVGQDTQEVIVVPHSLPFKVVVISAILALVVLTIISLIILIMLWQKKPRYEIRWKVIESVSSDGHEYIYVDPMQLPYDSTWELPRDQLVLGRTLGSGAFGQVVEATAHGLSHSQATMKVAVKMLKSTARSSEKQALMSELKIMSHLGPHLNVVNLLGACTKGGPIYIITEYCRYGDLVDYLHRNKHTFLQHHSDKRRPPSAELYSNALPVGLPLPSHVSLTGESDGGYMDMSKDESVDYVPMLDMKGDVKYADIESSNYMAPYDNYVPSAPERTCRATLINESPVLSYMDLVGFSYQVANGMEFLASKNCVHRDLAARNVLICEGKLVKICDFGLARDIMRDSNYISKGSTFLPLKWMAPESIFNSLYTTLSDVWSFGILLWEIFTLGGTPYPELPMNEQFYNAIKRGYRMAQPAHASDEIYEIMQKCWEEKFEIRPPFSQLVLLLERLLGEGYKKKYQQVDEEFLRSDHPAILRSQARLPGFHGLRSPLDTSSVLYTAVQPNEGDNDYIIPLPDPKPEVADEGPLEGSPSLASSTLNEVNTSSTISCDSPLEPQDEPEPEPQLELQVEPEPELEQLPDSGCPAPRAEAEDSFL

[33] = biological target: Glycogen synthase kinase-3 beta (Homo sapiens, UniProt P49841); test: Inhibition of N-terminal FLAG-tagged GSK3beta (unknown origin) expressed in baculovirus expression system incubated for 5 mins prior to [gamma-33P]ATP addition measured after 30 mins by scintillation counting analysis
Chain of Glycogen synthase kinase-3 beta (P49841 whole entry): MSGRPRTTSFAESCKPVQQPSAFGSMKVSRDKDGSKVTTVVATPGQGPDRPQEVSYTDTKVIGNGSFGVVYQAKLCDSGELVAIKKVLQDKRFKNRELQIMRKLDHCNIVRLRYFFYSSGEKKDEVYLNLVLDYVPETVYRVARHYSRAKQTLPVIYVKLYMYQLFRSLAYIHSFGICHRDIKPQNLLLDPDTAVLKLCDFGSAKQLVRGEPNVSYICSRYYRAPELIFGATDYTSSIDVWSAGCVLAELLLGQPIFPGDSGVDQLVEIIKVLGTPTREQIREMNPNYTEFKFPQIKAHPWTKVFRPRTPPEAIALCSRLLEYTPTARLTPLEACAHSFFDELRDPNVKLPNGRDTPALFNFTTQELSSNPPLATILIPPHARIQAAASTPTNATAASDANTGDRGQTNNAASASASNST

[34] = biological target: Serine/threonine-protein kinase PLK1 (Homo sapiens, UniProt P53350); test: Inhibition of N-terminal FLAG-tagged PLK (unknown origin) expressed in baculovirus expression system incubated for 5 mins prior to [gamma-33P]ATP addition measured after 40 mins by scintillation counting analysis
[35] = biological target: Serine/threonine-protein kinase B-raf (Homo sapiens, UniProt P15056); test: Inhibition of wild type N-terminal FLAG-tagged B-raf (unknown origin) expressed in baculovirus expression system incubated for 5 mins prior to [gamma-33P]ATP addition measured after 20 mins by scintillation counting analysis
[36] = Inhibition of PKA (unknown origin) expressed in Escherichia coli expression system incubated for 5 mins prior to [gamma-33P]ATP addition measured after 10 mins by scintillation counting analysis; set-up: species or system Homo sapiens
[37] = biological target: Insulin receptor (Homo sapiens, UniProt P06213); test: Inhibition of InsR (unknown origin) incubated for 5 mins prior to ATP addition measured after 60 mins by Alphascreen assay

## COC(=O)C1=Cc2c(ncnc2Nc2ccc(Oc3cccc(C(F)(F)F)c3)c(Cl)c2)NCC1
[1]
  IC50: 110 nM
[2]
  GI50: 2000 nM
[3]
  IC50: 100 nM

## COC(=O)C1=Cc2c(ncnc2Nc2ccc(Oc3cccc4sccc34)c(Cl)c2)NCC1
[1]
  IC50: 44 nM
[2]
  GI50: 190 nM
[3]
  IC50: 18 nM

## CC(C)(O)CC(=O)NCCn1ccc2ncnc(Nc3ccc(Oc4cccc(C(F)(F)F)c4)c(Cl)c3)c21 [TAK-285]
[2]
  GI50: 17 nM

## CS(=O)(=O)CCNC(=O)C1=Cc2c(ncnc2Nc2ccc(Oc3cccc4sccc34)c(Cl)c2)NCC1
[1]
  IC50: 47 nM
[2]
  GI50: 25 nM
[3]
  IC50: 30 nM

## O=C(NCCO)C1=Cc2c(ncnc2Nc2ccc(Oc3cccc4sccc34)c(Cl)c2)NCC1
[4]
  IC50: > 10000 nM
[5]
  IC50: > 10000 nM
[6]
  IC50: > 10000 nM
[7]
  IC50: > 10000 nM
[8]
  IC50: > 10000 nM
[9]
  IC50: > 10000 nM
[10]
  IC50: 9800 nM
[11]
  IC50: > 10000 nM
[12]
  IC50: > 10000 nM
[13]
  IC50: > 10000 nM
[2]
  GI50: 18 nM
[14]
  IC50: > 10000 nM
[15]
  IC50: > 10000 nM
[16]
  IC50: > 10000 nM
[17]
  IC50: 5600 nM
[18]
  IC50: 870 nM
[19]
  IC50: > 10000 nM
[20]
  inhibition: Active
[21]
  IC50: > 10000 nM
[22]
  IC50: > 10000 nM
[23]
  IC50: 3000 nM
[24]
  IC50: 240 nM
[25]
  IC50: > 10000 nM
[26]
  IC50: > 10000 nM
[27]
  IC50: 3200 nM
[28]
  IC50: > 10000 nM
[29]
  IC50: 1700 nM
[30]
  IC50: > 10000 nM
[31]
  IC50: > 10000 nM
[32]
  IC50: > 10000 nM
[33]
  IC50: > 10000 nM
[3]
  IC50: 24 nM
[34]
  IC50: > 10000 nM
[35]
  IC50: 230 nM
[36]
  IC50: > 10000 nM
[37]
  IC50: > 10000 nM

## CS(=O)(=O)CCNC(=O)C1=Cc2c(ncnc2Nc2ccc(Oc3cccc(C(F)(F)F)c3)c(Cl)c2)NCC1
[1]
  IC50: 75 nM
[2]
  GI50: 620 nM
[3]
  IC50: 65 nM

## O=C(NCCO)C1=Cc2c(ncnc2Nc2ccc(Oc3cccc(C(F)(F)F)c3)c(Cl)c2)NCC1
[1]
  IC50: 38 nM
[2]
  GI50: 630 nM
[3]
  IC50: 29 nM
